# Experimental data taken from patent US12441988B2, “Engineered adult-like human heart tissue” (THE TRUSTEES OF COLUMBIA UNIVERSITY IN THE CITY OF NEW YORK, priority 2015, dated 2025).
# “Also recorded” adds a separate entry of the source.
# Key:
# Type in all cases: cell-based, human
# [1] = test system: hiPS-CM organoids; assay: Calcium handling (Fluo-4 calcium transients) in organoids and FCTs; details: for calcium transients after drug: organoids and FCTs, verapamil or 0.002 mM thapsigargin
# Description: Calcium transients were analyzed using the Fluo-4 NW dye in RPMI+B27 media containing 5 μM blebbistatin to reduce movement artifacts, for 30 minutes at 37° C. Videos were acquired at a rate of 150 frames per second using a Pike F-032 camera controlled by the custom-designed, free-source SPLASSH software. Videos were analyzed in MATLAB using a custom script that calculated the temporal changes in calcium fluorescence intensity. Each frame was normalized to a baseline background region to give baseline corrected changes in minimum and maximum fluorescence values for each frame. This temporal change in fluorescence intensity was presented as a calcium transient trace. The calcium transient timing was determined as the peak-to-peak value of two successive beats as defined by the peak maxima. Calcium transient amplitude was determined by numerically integrating the area below the peak maxima relative to the baseline. […] The average rhythmicity was defined as the ratio of the parameter standard deviation to the parameter mean of the corresponding (control, constant, intensity) tissue group. Beats with parameter measurements falling outside two standard deviations from the average rhythmicity were classified as irregular.
# (§1) Tissues (organoids and FCTs) within culture platforms were loaded with Fluo-4 NW (50% v/v, Life Technologies) in RPMI+B27 media containing 5 μM blebbistatin (Sigma) to reduce movement artifacts, for 30 minutes at 37° C. Videos were acquired at a rate of 150 frames per second using a Pike F-032 camera (Allied Vision Technologies) controlled by the custom designed, free-source SPLASSH software. Videos were analyzed in MATLAB using a custom script that calculated the temporal changes in calcium fluorescence intensity. Specifically, each frame was normalized to a baseline background region to give baseline-corrected changes in minimum and maximum fluorescence values for each frame. This temporal change in fluorescence intensity was presented as a calcium transient trace from which measurements were obtained.
# (§2) Calcium transients were analyzed to measure the irregularity of various parameters as previously described. Briefly, the calcium transient “timing” was determined as the peak-to peak value of two successive beats as defined by the peak maxima. Calcium transient “amplitude” was determined by numerically integrating the area below the peak maxima relative to the baseline. […] The average rhythmicity was defined as the ratio of the parameter standard deviation to the parameter mean of the corresponding (control, constant, intensity) tissue group. Beats with parameter measurements falling outside two standard deviations from the average rhythmicity were classified as irregular.
# [2] = test system: hiPS-CM organoids; assay: Dose response curves of drugs in engineered cardiac tissue (beat frequency, force, EC50); details: for beat frequency (BPM): engineered cardiac micro-tissue, increasing drug concentrations
# Description: Tissue contractility was measured by tracking the change in the projected tissue area as a function of time. Live cell, bright field videos were acquired at rates of 150 frames per second using a Pike F-032b (Allied Vision Technologies) camera controlled with the custom […] software. Acquired video frames were inverted and an automated intensity threshold was used to identify cell location in the video frame. First, a baseline time point in the video corresponding to a relaxed tissue state was selected. Absolute differences in cell area from the baseline frame were then calculated to create a time course of cell area dynamics as a function of time. The resulting time courses were analyzed with a native MATLAB automated peak finding algorithm to determine locations of maximum cell contraction indicated by the locations of local maxima in the time courses. Beat period lengths were determined from the length of time between pairs of local maxima. Beat frequencies were determined by inverting beat periods. Contraction amplitude relaxation times were measured from the length of time required for the time course to relax in amplitude from the peak contraction amplitude of the local maxima to the calculated relaxation amplitude (e.g. the […] time was the length of time elapsed from the local maxima until the contraction time course reached 10% of the local maximum contraction difference amplitude). Drugs were diluted in standard media (RPMI+B27). […] Tissue videos were captured≥5 minutes after each dose was administered, and processed using custom image processing software as discussed above. For chronotropic drugs, bright field videos were taken at each drug concentration so that measurements of the beat frequency could be determined as a function of drug concentration. For ionotropic drugs, tissues were placed in the organ bath and force measurements were recorded as previously described at each drug concentration so that the measurements of the change in force generated could be determined as a function of drug concentration. Dose-response curves for these parameters could be constructed by using Matlab to fit the Hill Equation for sigmoid curves to the data, to determine the corresponding EC50 value.
# [3] = test system: hiPS-CM organoids; assay: Force measurements (twitch tension, organ bath); details: intensity-trained organoids versus other organoids and FCTs
# [4] = test system: TS organoids; assay: Timothy Syndrome disease model, calcium transients and EADs
# Description: Timothy Syndrome hiPSCs were generated and differentiated into CMs as previously described. Briefly, fibroblasts were isolated from patients with Timothy Syndrome (TS line) and a control healthy fibroblast line (#3, IMR90 cell line) and transduced by lipofection using established episomal vectors. […] 2 μM IWP-3 (Wnt inhibitor, #SML0533, Lot #102m4613V, Sigma-Aldrich) was added for days 5-11, in DF20 for days 5-7 and DF5 for day 7 onwards.
# as §1, §2
# [5] = test system: TS organoids; assay: Timothy Syndrome disease model, force generation in response to extracellular calcium; details: Ca2+ overload with decreased force
compound,measurement,setting,value
ryanodine,response to ryanodine,"[1]; 1 μmol/L, early-stage versus late-stage intensity trained organoids",intensity trained early-stage but not late-stage organoids respond
CC(C)NCC(O)c1ccc(O)c(O)c1 (stereo not drawn) [isoproterenol],beat frequency (BPM),[2],increases with increasing concentrations
same,"ionotropic, lusitropic and chronotropic responses",[2]; intensity-trained organoids,"positive ionotropic (FIG. 23A), lusitropic (FIG. 23B), and chronotropic (FIG. 23C) responses; also recorded: dose-dependent effect on three functional properties"
same,twitch tension,[3],responded by increasing twitch tension
same,twitch tension,[3]; listed as Isoprenaline,significantly increased their twitch tension
same,"calcium transients, QT intervals, EADs under β-adrenergic stimulation",[4],"increased calcium transients, prolonged QT intervals, and led to proarrhythmic EADs"
COc1cc(N)c(Cl)cc1C(=O)NC1CCN(CCCOc2ccc(F)cc2)CC1OC (stereo not drawn) [cisapride],beat frequency (BPM),[2],opposite effect
same,proarrhythmic Early After Depolarizations,"[1]; female cardiac organoids, 1 μM",increased proarrythmic Early After Depolarizations
same,"intracellular calcium transients, early after-depolarizations (EADs)","[1]; intensity-trained organoids, increasing concentrations",prolonged
same,proarrhythmic tendencies,[1]; other (not intensity-trained) organoids and FCTs,did not recapitulate proarrythmic tendencies
same,incidence of EADs,[4],increased incidence of EADs
COc1ccc(CCN(C)CCCC(C#N)(c2ccc(OC)c(OC)c2)C(C)C)cc1OC (stereo not drawn) [verapamil],calcium transients after drug,[1],cessation of calcium transients in all tissues; also recorded: cessation of Ca2+ transients
same,rescue of the TS phenotype,[4]; therapeutic concentrations,rescued the phenotype
O=C1c2c(O)ccc(O)c2C(=O)c2c(NCCNCCO)ccc(NCCNCCO)c21 [mitoxantrone],beat frequency (BPM),[2],opposite effect
CC(C)NCC(O)COc1cccc2ccccc12 (stereo not drawn) [propranolol],force generation in response to extracellular calcium,[5],reversed some of these effects
CNC[C@H](O)c1ccc(O)c(O)c1 [epinephrine],incidence of EADs,[4],increased incidence of EADs
C/C=C(/C)C(=O)O[C@H]1C(C)=C2[C@H]([C@@H]1OC(=O)CCCCCCC)[C@@](C)(OC(C)=O)C[C@H](OC(=O)CCC)[C@@]1(O)[C@H]2OC(=O)[C@@]1(C)O [thapsigargin],calcium transients after drug,[1],calcium transients ceased quickly in intensity-trained organoids
Cn1c(=O)c2c(ncn2C)n(C)c1=O [caffeine],release of Ca2+ by caffeine after nifedipine,[4],released Ca2+ back into the cytosol
